What follows are compounds tested against T1, 5-HT transporter (Rattus norvegicus, UniProt P31652) (assay: Inhibition of 5-HT uptake in rat brain synaptosomes). Details: Table III; rat, 1 μM.
T1 construct: synaptosomes of rat brain areas are freshly isolated; from tissue; host or cells: rat brain synaptosomes (P2 fraction) from marrow and pons
T1 sequence (P31652 whole entry): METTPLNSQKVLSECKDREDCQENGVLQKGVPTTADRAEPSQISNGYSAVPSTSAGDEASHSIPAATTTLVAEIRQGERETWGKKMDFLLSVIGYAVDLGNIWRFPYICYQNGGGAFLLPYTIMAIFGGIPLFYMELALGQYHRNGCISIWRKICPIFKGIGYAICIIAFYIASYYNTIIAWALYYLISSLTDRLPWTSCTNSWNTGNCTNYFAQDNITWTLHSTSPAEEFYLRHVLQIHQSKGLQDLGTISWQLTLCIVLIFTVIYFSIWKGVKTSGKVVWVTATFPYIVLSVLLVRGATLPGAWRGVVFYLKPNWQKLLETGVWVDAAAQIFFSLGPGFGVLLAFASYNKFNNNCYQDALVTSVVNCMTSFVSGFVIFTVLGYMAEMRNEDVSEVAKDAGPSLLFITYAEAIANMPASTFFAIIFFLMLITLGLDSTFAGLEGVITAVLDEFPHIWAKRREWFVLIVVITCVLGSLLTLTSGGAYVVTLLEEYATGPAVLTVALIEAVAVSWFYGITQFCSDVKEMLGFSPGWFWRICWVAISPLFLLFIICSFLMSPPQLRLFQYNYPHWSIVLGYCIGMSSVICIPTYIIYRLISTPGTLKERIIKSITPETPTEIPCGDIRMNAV
Format: biochemical
With `CC(=O)Nc1ccc(C(=O)N2CCC3(CC2)NC(CC(C)C)C(=O)N3CCCCOC(C)=O)cc1` (centres unmarked) [Example 255, Butyl 4-[8-(4-acetylaminobenzoyl)-3-isobutyl-2-oxo-1,4,8-triazaspiro[4,5]dec-1-yl]acetate] the “Uptake 5-HT, rat, 1 μM, % inhibition” value was 44%.
With `CC(=O)OC(C(=O)N1CCC2(CC1)NCC(=O)N2Cc1cccc(C#N)c1)c1ccccc1` (centres unmarked) [Example 284, Ethyl 2-[1-(3-cyanobenzyl)-2-oxo-1,4,8-triazaspiro[4,5]dec-8-yl]-2-oxo-1-phenylacetate] the “Uptake 5-HT, rat, 1 μM, % inhibition” value was 51%.
In the case of `C=CCN1C(=O)C(CCSC)NC12CCN(C(=O)c1ccc(S(N)(=O)=O)cc1)CC2` (centres unmarked) [Example 259, 4-[1-Allyl-3-(2-methylsulfanylethyl)-2-oxo-1,4,8-triazaspiro[4,5]decan-8-carbonyl]benzolsulfonamide], the “Uptake 5-HT, rat, 1 μM, % inhibition” value is reported as 50%.
`CCOc1ccccc1C(=O)N1CCC2(CC1)NC(CC(C)C)C(=O)N2CCCCOC(C)=O` (centres unmarked) [Example 310, Butyl 4-[8-(2-ethoxybenzoyl)-3-isobutyl-2-oxo-1,4,8-triazaspiro[4,5]dec-1-yl]acetate] was tested, and the “Uptake 5-HT, rat, 1 μM, % inhibition” value was 48%.

Same assay, conditions: characteristic data of the 5-HT transporter, rat synaptosomes
For `NCCc1c[nH]c2ccc(O)cc12` [Example 5-HT, reference compound], the Km was 84 ± 11 nM.

Same assay, conditions: read-out: Uptake 5-HT, % inhibition; Table III; rat, 1 μM
`CSCCC1NC2(CCN(C(=O)c3c(F)ccc(C)c3F)CC2)N(C)C1=O` (centres unmarked) [Example 231, 8-(2,6-Difluoro-3-methylbenzoyl)-1-methyl-3-(2-methylsulfanylethyl)-1,4,8-triazaspiro[4,5]decan-2-one] was tested, and the inhibition at 1 µM was 31%.
`CN1C(=O)C(Cc2ccccc2)NC12CCN(C(=O)c1ccc(C(F)(F)F)c(F)c1)CC2` (centres unmarked) [Example 191, 3-Benzyl-8-(3-fluoro-4-trifluoromethylbenzoyl)-1-methyl-1,4,8-triazaspiro[4,5]decan-2-one] gave an inhibition at 1 µM of 30%.
In the case of `C#CCN1C(=O)C(CCSC)NC12CCN(C(=O)C1CCC1)CC2` (centres unmarked) [Example 152, 8-Cyclobutanecarbonyl-3-(2-methylsulfanylethyl)-1-prop-2-ynyl-1,4,8-triazaspiro[4,5]decan-2-one], the inhibition at 1 µM is reported as 56%.
`CCCCN1C(=O)C(CCSC)NC12CCN(C(=O)c1ccc(OC)cc1)CC2` (centres unmarked) [Example 144, 1-Butyl-8-(4-methoxybenzoyl)-3-(2-methylsulfanylethyl)-1,4,8-triazaspiro[4,5]decan-2-one] showed an inhibition at 1 µM of 51%.
For `Cc1ccc(Cl)c(C(=O)N2CCC3(CC2)NC(Cc2ccccc2)C(=O)N3C)c1F` (centres unmarked) [Example 224, 3-Benzyl-8-(6-chloro-2-fluoro-3-methylbenzoyl)-1-methyl-1,4,8-triazaspiro[4,5]decan-2-one], the inhibition at 1 µM was 30%.
`C#CCN1C(=O)C(Cc2ccccc2)NC12CCN(C(=O)c1snnc1C)CC2` (centres unmarked) [Example 244, 3-Benzyl-8-(4-methyl[1,2,3]thiadiazole-5-carbonyl)-1-prop-2-ynyl-1,4,8-triazaspiro[4,5]decan-2-one] gave an inhibition at 1 µM of 51%.
With `Cc1nc(C(F)(F)F)ccc1C(=O)N1CCC2(CC1)NC(C(C)C)C(=O)N2Cc1ccccc1` (centres unmarked) [Example 178, 1-Benzyl-3-isopropyl-8-(2-methyl-6-trifluoromethylpyridin-3-carbonyl)-1,4,8-triazaspiro[4,5]decan-2-one] the inhibition at 1 µM was 49%.
Work on `C#CCN1C(=O)C(CCSC)NC12CCN(C(=O)CCCOc1ccccc1)CC2` (centres unmarked) [Example 222, 3-(2-Methylsulfanylethyl)-8-(4-phenoxybutyryl)-1-prop-2-ynyl-1,4,8-triazaspiro[4,5]decan-2-one] yielded an inhibition at 1 µM of 60%.
In the case of `CCCCN1C(=O)C(Cc2ccccc2)NC12CCN(C(=O)COC)CC2` (centres unmarked) [Example 190, 3-Benzyl-1-butyl-8-(2-methoxyacetyl)-1,4,8-triazaspiro[4,5]decan-2-one], the inhibition at 1 µM is reported as 43%.
Compound `C=CCN1C(=O)C(CCSC)NC12CCN(C(=O)C(=O)OCC)CC2` (centres unmarked) [Example 261, Ethyl 2-[1-allyl-3-(2-methylsulfanylethyl)-2-oxo-1,4,8-triazaspiro[4,5]dec-8-yl]-2-oxo-acetate] has an inhibition at 1 µM of 39%.
`CCCCN1C(=O)C(CCSC)NC12CCN(C(=O)CCCOc1ccccc1)CC2` (centres unmarked) [Example 161, 1-Butyl-3-(2-methylsulfanylethyl)-8-(4-phenoxybutyryl)-1,4,8-triazaspiro[4,5]decan-2-one] was tested, and the inhibition at 1 µM was 39%.
`COc1cc(C(=O)N2CCC3(CC2)NCC(=O)N3Cc2cccc(C#N)c2)cc(OC)c1OC` [Example 277, 3-[2-Oxo-8-(3,4,5-trimethoxybenzoyl)-1,4,8-triazaspiro[4,5]dec-1-ylmethyl]benzonitrile] was tested, and the inhibition at 1 µM was 43%.
With `CSCCC1NC2(CCN(C(=O)c3ccccn3)CC2)N(Cc2ccccc2F)C1=O` (centres unmarked) [Example 170, 1-(2-Fluorobenzyl)-3-(2-methylsulfanylethyl)-8-(pyridin-2-carbonyl)-1,4,8-triazaspiro[4,5]decan-2-one] the inhibition at 1 µM was 46%.
For `CCCCN1C(=O)C(CCSC)NC12CCN(C(=O)COCc1ccccc1)CC2` (centres unmarked) [Example 159, 8-(2-Benzyloxyacetyl)-1-butyl-3-(2-methylsulfanylethyl)-1,4,8-triazaspiro[4,5]decan-2-one], the inhibition at 1 µM was 40%.
In the case of `CC(C)(C)CC(=O)N1CCC2(CC1)NC(=O)C(Cc1ccccc1)N2` (centres unmarked) [Example 110, 3-Benzyl-8-(3,3-dimethylbutyryl)-1,4,8-triazaspiro[4,5]decan-2-one], the inhibition at 1 µM is reported as 33%.
`CCCCN1C(=O)C(Cc2ccccc2)NC12CCN(C(=O)c1cc(C(F)(F)F)ccc1C(F)(F)F)CC2` (centres unmarked) [Example 155, 3-Benzyl-8-(2,5-bis-trifluoromethylbenzoyl)-1-butyl-1,4,8-triazaspiro[4,5]decan-2-one] gave an inhibition at 1 µM of 74%.
`N#Cc1cccc(CN2C(=O)CNC23CCN(C(=O)c2ccccc2C(F)(F)F)CC3)c1` [Example 308, 3-[2-Oxo-8-(2-trifluoromethylbenzoyl)-1,4,8-triazaspiro[4,5]dec-1-ylmethyl]benzonitrile] showed an inhibition at 1 µM of 59%.
`Cc1cc(C(=O)N2CCC3(CC2)NC(Cc2ccccc2)C(=O)N3C)no1` (centres unmarked) [Example 239, 3-Benzyl-1-methyl-8-(5-methylisoxazole-3-carbonyl)-1,4,8-triazaspiro[4,5]decan-2-one] gave an inhibition at 1 µM of 36%.
Compound `CCCCN1C(=O)C(CCSC)NC12CCN(C(=O)c1cc(C)oc1C)CC2` (centres unmarked) [Example 219, 1-Butyl-8-(2,5-dimethylfuran-3-carbonyl)-3-(2-methylsulfanylethyl)-1,4,8-triazaspiro[4,5]decan-2-one] has an inhibition at 1 µM of 30%.
With `CC(C)=CCN1C(=O)C(C(C)C)NC12CCN(C(=O)c1c(-c3c(F)cccc3Cl)noc1C)CC2` (centres unmarked) [Example 233, 8-[3-(2-Chloro-6-fluorophenyl)-5-methylisoxazole-4-carbonyl]-3-isopropyl-1-(3-methylbut-2-enyl)-1,4,8-triazaspiro[4,5]decan-2-one] the inhibition at 1 µM was 30%.
`CCOC(=O)CN1C(=O)C(CCSC)NC12CCN(C(=O)CC)CC2` (centres unmarked) [Example 263, Ethyl [3-(2-methylsulfanylethyl)-2-oxo-8-propionyl-1,4,8-triazaspiro[4,5]dec-1-yl]acetate] gave an inhibition at 1 µM of 50%.
For `COC(=O)c1ccc(CN2C(=O)CNC23CCN(C(=O)Cc2ccccc2)CC3)cc1` [Example 283, Methyl 4-(2-oxo-8-phenylacetyl-1,4,8-triazaspiro[4,5]dec-1-ylmethyl)benzoate], the inhibition at 1 µM was 51%.
`Cc1cc(C(=O)N2CCC3(CC2)NCC(=O)N3Cc2ccccc2F)n(C(C)(C)C)n1` [Example 253, 8-(2-tert-Butyl-5-methyl-2H-pyrazole-3-carbonyl)-1-(2-fluorobenzyl)-1,4,8-triazaspiro[4,5]decan-2-one] was tested, and the inhibition at 1 µM was 82%.
`COC(=O)c1ccc(CN2C(=O)CNC23CCN(C(=O)c2cccnc2Cl)CC3)cc1` [Example 252, Methyl 4-[8-(2-chloropyridin-3-carbonyl)-2-oxo-1,4,8-triazaspiro[4,5]dec-1-ylmethyl]benzoate] showed an inhibition at 1 µM of 73%.
In the case of `COc1ccc(CC(=O)N2CCC3(CC2)NCC(=O)N3Cc2ccccc2F)cc1` [Example 320, 1-(2-Fluorobenzyl)-8-[2-(4-methoxyphenyl)acetyl]-1,4,8-triazaspiro[4,5]decan-2-one], the inhibition at 1 µM is reported as 38%.
Compound `COC(=O)c1ccc(CN2C(=O)C(C(C)C)NC23CCN(C(=O)c2cccnc2SC)CC3)cc1` (centres unmarked) [Example 194, Methyl 4-[3-isopropyl-8-(2-methylsulfanylpyridin-3-carbonyl)-2-oxo-1,4,8-triazaspiro[4,5]dec-1-ylmethyl]benzoate] has an inhibition at 1 µM of 32%.
Work on `CCOC(=O)CC(=O)N1CCC2(CC1)NCC(=O)N2CCOc1ccccc1` [Example 74, Ethyl 3-oxo-3-[2-oxo-1-(2-phenoxyethyl)-1,4,8-triazaspiro[4,5]dec-8-yl]propionate] yielded an inhibition at 1 µM of 47%.
`COc1ccc(C(=O)N2CCC3(CC2)NC(CCSC)C(=O)N3C)c(OC)c1` (centres unmarked) [Example 67, 8-(2,4-Dimethoxybenzoyl)-1-methyl-3-(2-methylsulfanylethyl)-1,4,8-triazaspiro[4,5]decan-2-one] showed an inhibition at 1 µM of 46%.
Compound `Cc1cc(C(=O)N2CCC3(CC2)NC(=O)C(C(C)C)N3)ccc1Br` (centres unmarked) [Example 130, 8-(4-Bromo-3-methylbenzoyl)-3-isopropyl-1,4,8-triazaspiro[4,5]decan-2-one] has an inhibition at 1 µM of 32%.
Compound `CCOC(=O)CN1C(=O)C(Cc2ccccc2)NC12CCN(C(=O)C1CCC1)CC2` (centres unmarked) [Example 319, Ethyl (3-benzyl-8-cyclobutanecarbonyl-2-oxo-1,4,8-triazaspiro[4,5]dec-1-yl)acetate] has an inhibition at 1 µM of 70%.
With `CCCCN1C(=O)C(Cc2ccccc2)NC12CCN(C(=O)c1ccccn1)CC2` (centres unmarked) [Example 202, 3-Benzyl-1-butyl-8-(pyridin-2-carbonyl)-1,4,8-triazaspiro[4,5]decan-2-one] the inhibition at 1 µM was 56%.
`COC(=O)c1ccc(CN2C(=O)CNC23CCN(C(=O)c2cccnc2SC)CC3)cc1` [Example 254, Methyl 4-[8-(2-methylsulfanylpyridin-3-carbonyl)-2-oxo-1,4,8-triazaspiro[4,5]dec-1-ylmethyl]benzoate] gave an inhibition at 1 µM of 34%.
`C#CCN1C(=O)C(Cc2ccccc2)NC12CCN(C(=O)c1cc(C)on1)CC2` (centres unmarked) [Example 251, 3-Benzyl-8-(5-methylisoxazole-3-carbonyl)-1-prop-2-ynyl-1,4,8-triazaspiro[4,5]decan-2-one] was tested, and the inhibition at 1 µM was 50%.

From US7951815B2, “Substituted 1,4,8-triazaspiro [4,5]decan-2-one compounds” (Gruenenthal GmbH, priority 2004, dated 2011)
